Results taken from US10799505B2, “Crystalline form of (S)-N-(5-((R)-2-(2,5-difluorophenyl)-pyrrolidin-1-yl)-pyrazolo[1,5-A]pyrimidin-3-yl)-3-hydroxypyrrolidine-1-carboxamide hydrogen sulfate” (Array BioPharma, Inc., priority 2014, dated 2020).

Tests used:
Assay type in all cases: physicochemical
[1] = Dynamic vapor sorption / humidity exposure (IGAsorp, 25° C.); conditions: at 80% RH, hydrogen sulfate
Procedure: • 1. The hygroscopicity was studied at 25° C. using an IGAsorp analyzer. • 2. About 15 mg of sample was placed in a tared mesh sample holder at an initial ambient room humidity setting of ˜35%. • 3. A total wet/dry nitrogen flow rate of 250 cc/min is used throughout the study. • 4. […] The maximum time allowed at any one humidity set point was 120 min. The sample was maintained under dry N2 after the cycle was completed. Percent weight gain was calculated based on the dry weight basis.

[2] = Accelerated stability, open vials in LDPE bag, 40° C./75% RH, five weeks
Procedure: Upon removal from the chamber, the samples were physically characterized by appearance, KF, TGA, DSC, XRD and PLM. The samples were also analyzed by HPLC for chromatographic purity, chiral integrity and potency. Where applicable, the data presented in the stability portion also includes the original T=0 data for comparison purposes. The data can be seen in Tables 25-29 and FIGS. 40-44.

Angle of repose = conditions: for Angle of Repose θ: one side of the pile; for Angle of Repose φ: other side of the pile
Procedure: The angle of repose is the angle formed by the horizontal base of the surface and the edge of a cone-like pile of granules. It is calculated from the following equation: […]
The angle of repose was measured by slowly pouring approximately 1 g of sample through a funnel with a 3/16″ inner diameter of the outlet. The powder then fell 1 11/16″ to land on the surface of an overturned crystallization dish on which a pile of powder formed. A picture was taken of the pile after addition of all of the material. The angle between the dish surface and the surface of the pile was measure via a protractor on the pictures. Care was taken to replicate the same positions and fall distances in the set up between different samples.

[3] = Bulk and tap densities, Carr's Index, Hausner Ratio
Procedure: The powder was added to a pre-weighed 10 mL graduated cylinder through a funnel that was not in direct contact with the graduated cylinder to avoid transference of vibrations. Powder was added until a 10 mL volume was reached and then the graduated cylinder with powder was weighed. The bulk density was calculated by
[formula] The same sample in the graduated cylinder was tapped for the following sequence: 100, 150, 250, 250 taps. The volume was measured after each interval. The tapped density was calculated by
The Carr's Index was calculated according to the following equation: […]
The Hausner Ratio was calculated with the following equation: […]

[4] = Dynamic vapor sorption (DVS-1 system); conditions: for DVS (outcome): HCl: at 50-60% RH
Procedure: For the DVS measurement a sample of crystalline form (I-HS) was cycled through changing humidity conditions to determine its hygroscopicity. The sample was analyzed using a Surface Measurement System DVS-1 Dynamic Vapor Sorption System. […] Data was collected in 1 minute intervals. Nitrogen was used as the carrier gas. […] After completion of the sorption cycle, the sample was dried using the same procedure, but all the way down to 0% RH and finally taken back to the starting point of 20% RH. The weight change during the sorption/desorption cycles were plotted, allowing for the hygroscopic nature of the sample to be determined.

[5] = Stability on aluminum slide at 40° Celsius/75% RH; conditions: I-HS 10 days; HCl after 1 hour; HBr after 2 weeks; mesylate overnight

O=C(Nc1cnn2ccc(N3CCC[C@@H]3c3cc(F)ccc3F)nc12)N1CC[C@H](O)C1.O=S(=O)(O)O [AM(HS)1, (S)—N-(5-((R)-2-(2,5-difluorophenyl)-pyrrolidin-1-yl)-pyrazolo[1,5-a]pyrimidin-3-yl)-3-hydroxypyrrolidine-1-carboxamide hydrogen sulfate]
mass gained in DVS [1]: greater than 13%
Appearance ([2]; 40° C./75% RH, 5 wks): Orange Powder
Assay (HPLC) ([2]; 40° C./75% RH, 5 wks): 80.3%
Chiral Potency (HPLC) ([2]; 40° C./75% RH, 5 wks): 99.6%
KF (water content) ([2]; 40° C./75% RH, 5 wks): 0.56 w/w %
Peak Area Percent, RRT 0.793 ([2]; 40° C./75% RH, 5 wks): 0.00
Peak Area Percent, RRT 0.863 ([2]; 40° C./75% RH, 5 wks): 1.04
Peak Area Percent, RRT 0.981 ([2]; 40° C./75% RH, 5 wks): 0.12
Peak Area Percent, RRT 1.000 ([2]; 40° C./75% RH, 5 wks): 98.83
Peak Area Percent, RRT 1.535 ([2]; 40° C./75% RH, 5 wks): 0.00
Total Impurities (HPLC) ([2]; 40° C./75% RH, 5 wks): 1.16%
change of API chemical purity ([2]; 40° C./75% RH, five weeks): did not change significantly
Appearance ([2]; time point 0 wks): Yellow Powder
Assay (HPLC) ([2]; time point 0 wks): 79.5%
Chiral Potency (HPLC) ([2]; time point 0 wks): 99.6%
KF (water content) ([2]; time point 0 wks): 2.00 w/w %
Peak Area Percent, RRT 0.793 ([2]; time point 0 wks): 0.00
Peak Area Percent, RRT 0.863 ([2]; time point 0 wks): 0.98
Peak Area Percent, RRT 0.981 ([2]; time point 0 wks): 0.12
Peak Area Percent, RRT 1.000 ([2]; time point 0 wks): 98.89
Peak Area Percent, RRT 1.535 ([2]; time point 0 wks): 0.00
Total Impurities (HPLC) ([2]; time point 0 wks): 1.10%

O=C(Nc1cnn2ccc(N3CCC[C@@H]3c3cc(F)ccc3F)nc12)N1CC[C@H](O)C1.O=S(=O)(O)O [AM(HS)2, (S)—N-(5-((R)-2-(2,5-difluorophenyl)-pyrrolidin-1-yl)-pyrazolo[1,5-a]pyrimidin-3-yl)-3-hydroxypyrrolidine-1-carboxamide hydrogen sulfate]
mass gained in DVS [1]: ~12%

O=C(Nc1cnn2ccc(N3CCC[C@@H]3c3cc(F)ccc3F)nc12)N1CC[C@H](O)C1.O=S(=O)(O)O [AR00457470-33]
Angle of Repose Average (Angle of repose): 45.70 °
Angle of Repose θ (Angle of repose): 47.79 °
Angle of Repose φ (Angle of repose): 43.6 °
Bulk Density [3]: 423.6 mg/mL
Tapped Density [3]: 622.9 mg/mL

Br.O=C(Nc1cnn2ccc(N3CCC[C@@H]3c3cc(F)ccc3F)nc12)N1CC[C@H](O)C1 [HBr, (S)—N-(5-((R)-2-(2,5-difluorophenyl)pyrrolidin-1-yl)pyrazolo[1,5-a]pyrimidin-3-yl)-3-hydroxypyrrolidine-1-carboxamide hydrobromide]
DVS (outcome) [4]: (deliquesced)
DVS weight gain ([4]; at 80% RH): ~3.9% gain at 80%
DVS weight gain ([4]; at 90% RH): ~25% gain at 90%
Stability at 40° Celsius/75% RH (aluminum slide) [5]: amorphous

Cl.O=C(Nc1cnn2ccc(N3CCC[C@@H]3c3cc(F)ccc3F)nc12)N1CC[C@H](O)C1 [HCl, (S)—N-(5-((R)-2-(2,5-difluorophenyl)pyrrolidine-1-yl)pyrazolo[1,5-a]pyrimidin-3-yl)-3-hydroxypyrrolidine-1-carboxamide hydrochloride]
DVS (outcome) [4]: form change
DVS weight gain ([4]; at 50% RH): ~1% gain at 50%
Stability at 40° Celsius/75% RH (aluminum slide) [5]: form change

O=C(Nc1cnn2ccc(N3CCC[C@@H]3c3cc(F)ccc3F)nc12)N1CC[C@H](O)C1 [L-ARR10-118]
Angle of Repose Average (Angle of repose): 50.28 °
Angle of Repose θ (Angle of repose): 50.28 °
Angle of Repose φ (Angle of repose): 50.28 °
Bulk Density [3]: 594.8 mg/mL
Tapped Density [3]: 762.6 mg/mL

CS(=O)(=O)O.O=C(Nc1cnn2ccc(N3CCC[C@@H]3c3cc(F)ccc3F)nc12)N1CC[C@H](O)C1 [Mesylate, (S)—N-(5-((R)-2-(2,5-difluorophenyl)pyrrolidin-1-yl)pyrazolo[1,5-a]pyrimidin-3-yl)-3-hydroxypyrrolidine-1-carboxamide methanesulfonate]
DVS (outcome) [4]: (crystalline)
DVS weight gain ([4]; at 80% RH): ~9% gain at 80%
DVS weight gain ([4]; at 90% RH): ~50% gain at 90%
Stability at 40° Celsius/75% RH (aluminum slide) [5]: Deliquesced
